Results as given in patent US20220125837A1, “METHODS FOR CONTROLLED ELIMINATION OF THERAPEUTIC CELLS” (Bellicum Pharmaceuticals, Inc., priority 2014, published 2022).

Tests used:
iCasp9-transduced MSCs = assay: Apoptosis of iCasp9-ΔCD19 transduced undifferentiated MSCs after CID (annexin V/7-AAD)
iFas-transduced CTLs = assay: CID-induced elimination of GFP+ iFas-transduced EBV-CTLs; format: cell-based, human; settings: GFPhigh, 1:1 with nontransduced, 10 nM CID, day 7
Text: Caspase-9 was selected as an inducible proapoptotic molecule for clinical use rather than previously presented iFas and iFADD, because Caspase-9 acts relatively late in apoptosis signaling and therefore is expected to be less susceptible to inhibition by apoptosis inhibitors. Thus, suicide function should be preserved not only in malignant, transformed T-cell lines that express antiapoptotic molecules, but also in subpopulations of normal T cells that express elevated antiapoptotic molecules as part of the process to ensure long-term preservation of memory cells. To further investigate the hypothesis, the function of iCasp9M and iFas was first compared in EBV-CTLs. To eliminate any potential vector based difference, inducible Fas also was expressed in the MSCV.IRES.GFP vector, like iCasp9. […]
Elimination of GFP^+ cells after administration of 10 nM CID was more rapid and more efficient in iCasp9M than in iFas-transduced CTLs (99.2%+/−0.14% of iCasp9M-transduced cells compared with 89.3%+/−4.9% of iFas-transduced cells at day 7 after CID; P<0.05). On the day of LCL stimulation, 10 nM CID was administered, and GFP was measured at the time points indicated to determine the response to CID. […]

[1] = system: iCasp9M.IRES.GFPhigh-transduced CTLs; assay: SCID mouse-human xenograft: elimination of iCasp9M CTLs by CID; format: in vivo, NOD/SCID mice; settings: single dose of CID (50 μg AP20187 intraperitoneally), three days after
Protocol: Non-obese diabetic severe combined immunodeficient (NOD/SCID) mice, 6 to 8 weeks of age, were irradiated (250 rad) and injected subcutaneously in the right flank with 10×10^6 to 15×10^6 LCLs resuspended in Matrigel (BD Bioscience). Two weeks later mice bearing tumors that were approximately 0.5 cm in diameter were injected into the tail vein with a 1:1 mixture of nontransduced and iCasp9.I.GFPhigh-transduced EBV CTLs (total 15×10^6). At 4 to 6 hours prior and 3 days after CTL infusion, mice were injected intraperitoneally with recombinant hIL-2 (2000 U; Proleukin; Chiron). […] By FACS analysis, the number of GFP+ cells within the gated CD3^+ population was evaluated. […]
The function of iCasp9M also was evaluated in transduced EBV-CTLs in vivo. […] Three days after CID/carrier administration, tumors were analyzed for human CD3^+/GFP^+ cells. […]
The function of iCasp9M in vivo, was assayed. […] On day 3 after CTL administration, mice received either CID (50 μg AP20187; (black diamonds, n=6) or carrier only (black squares, n=5) and on day 6 the presence of human CD3+/GFP+ T cells in the tumors was analyzed. Human CD3+ T cells isolated from the tumors of a control group of mice that received only nontransduced CTLs (15×10^6 CTLs; n=4) were used as a negative control for the analysis of CD3+/GFP+ T cells within the tumors.

## CC[C@H](C(=O)N1CCCC[C@H]1C(=O)O[C@H](CCc1ccc(OC)c(OC)c1)c1cccc(OCC(=O)NCC(CNC(=O)COc2cccc([C@@H](CCc3ccc(OC)c(OC)c3)OC(=O)[C@@H]3CCCCN3C(=O)[C@@H](CC)c3cc(OC)c(OC)c(OC)c3)c2)CN(C)C)c1)c1cc(OC)c(OC)c(OC)c1 [AP20187]
iCasp9-transduced MSCs; 50 nM CID, 24 hrs
  apoptosis index of iCasp9-negative cells: 20±7%
iCasp9-transduced MSCs; 50 nM CID, representative FACS
  annexin positive, negative population (iCasp neg/CID): 19%
  annexin positive, non-transduced control MSC (Control/CID): 15%
iCasp9-transduced MSCs; 50 nM CID, within 24 hrs
  apoptotic death of iCasp9-positive cells: 93±1%
iCasp9-transduced MSCs; magnetic immunoselection
  immunoselected iCasp9-CD19-positive cells apoptotic after CID: More than 95%
iFas-transduced CTLs
  Elimination of GFP+ cells: 89.3%+/−4.9%
[1]; listed as CID
  reduction in the number of human CD3+/GFP+ T cells in tumors vs carrier: > 99%
[1]; listed as dimerizer
  reduction in the number of human CD3+/GFP+ T cells in tumors vs carrier: more than 99%
